One assay concerns rat aorta. The note with it: cited from earlier work; for vasorelaxing effect: Chen and Pace Asciak, Gen. Pharmac. 27(2), 363-366 (1996).
Assay [1] relates to 2nd order mesenteric artery side branches. In words: Reactivity of isolated arteries: dilator effect during contraction induced by 40 mmol/L K+. Set-up: species or system Spontaneously Hypertensive Rats (SHR). How it is done: Segments of 2nd order mesenteric artery side branches were isolated from 14 weeks old male Spontaneously Hypertensive Rats (SHR). Two stainless-steel wires (diameter 40 μm) were inserted in the lumen of the arterial segments, which were then mounted in organ chambers between an isometric force transducer and a displacement device (Danish Myotechnology by J. P. Trading, Denmark). The organ chambers were filled with Krebs-Ringer bicarbonate solution which was maintained at 37° C. and continuously aerated with 95% O2 and 5% CO2. Before the actual experiments started, arterial segments were stretched to their individual optimal lumen diameter for mechanical performance, i.e. the diameter at which maximal contractile responses to noradrenaline ([…]) were obtained. In each experiment four second order mesenteric resistance arterial segments from one animal were mounted in individual organ chambers and studied in parallel. At the start of the experiments, all four arterial preparations were incubated during 20 min with capsaicin (1 μmol/L) to persistently desensitize sensory-motor nerves and to obtain a stable and considerable contractile response to potassium (K^+, 40 mmol/L). During all the experiments superoxide dismutase (SOD, 5 U/ml) was present, to preserve stability of the metabolites. We tested the effects of the 35 different phenolic compounds using a Plackett-Burman screening design. The experiment consisted of 5 separate saturated 8 run Plackett-burman designs. Each design contained a subset of 7 phenolic compounds (Factors): One of the compounds tested was trans-resveratrol (in this case compound 30). […] In this way, the effects of different exposure times to the mixtures (7, 30 and 90 min) on K+-induced contraction, could be evaluated. […] Effects of increasing concentrations of the solvent and of the mixes (0.1 to 100 umol/L) during contractile responses to 40 mmol/L K+, were calculated as % change of the level of pre-contraction. […]

`O=c1c(O)c(-c2ccc(O)c(O)c2)oc2cc(O)cc(O)c12` [quercitin]: the vasorelaxing effect result in the assay with rat aorta is given as “vasorelaxing effect”.
With `Oc1ccc(C=Cc2cc(O)cc(O)c2)cc1` [resveratrol], in the assay with rat aorta, the vasorelaxing effect result is “vasorelaxing effect”. Further, in the assay with rat aorta (Fitzpatrick et al, Am. J. physiol. 265, H774-H778, 1993), the “relaxation of the rat aorta” value is “did not relax”.
In the case of `Oc1ccc(C=Cc2cc(O)cc(O)c2)cc1` [trans-resveratrol, 3,5,4′-trihydroxystilbene], the EC50 in assay [1] (Rattus norvegicus, isolated SHR mesenteric resistance arteries precontracted with 40 mmol/L K+, found by comparing mixtures (Plackett-Burman design), corrected for DMSO solvent, read-out: EC50 of dilation of the arteries) stood at 11.6 µM. In addition, the “influence on the dilation of the arteries” value in assay [1] (at a low concentration, comparison of different mixtures) was “significant influence”. For the same compound, the “concentration at which the maximum dilatation was obtained” value in assay [1] (isolated SHR mesenteric resistance arteries precontracted with 40 mmol/L K+, mixtures tested 0.1-100 umol/L) stood at 100 µM.

As a reminder, the EC50 is the concentration giving half of the maximal effect.

(Values after US20090012183A1, “Composition comprising polyphenol” (Conopco, Inc. d/b/a Unilever, priority 2007, published 2009).)
